Laboratory results published in US12742284B2, “Antimicrobial polymer coatings on textiles” (MICROBAN PRODUCTS COMPANY, priority 2022, dated 2023).

Test system: Kp
Test: AATCC TM 100 antimicrobial test on treated polyester after home launderings
Settings: for AATCC TM 100, Antimicrobial Test result (Kp - log reduction): 1.5% o.w.f. on polyester

[Na+].[O-][n+]1ccccc1[S-] [Sodium Pyrithione]
AATCC TM 100, Antimicrobial Test result (Kp - log reduction) (1 HL): 0.5 log reduction | AATCC TM 100, Antimicrobial Test result (Kp - log reduction) (25 HL): 0 log reduction | antimicrobial performance (in words) (after one cycle of home laundering): little efficacy | antimicrobial performance (in words) (after twenty-five home launderings): did not have antimicrobial performance
